In patent US20070224167A1, “Novel HCV inhibitor combinations and methods” (priority 2006, published 2007):
Entries after “also recorded” stand apart in the source; their conditions may differ.

How the values were obtained:
[1] = system: replicon variants with reduced susceptibility to HCV-796, including C316Y; assay: Susceptibility of HCV-796 resistant replicons to SCH 503034; format: cell-based; conditions: 72 hours, vs wild-type replicon
Experimental: The antiviral activity of SCH 503034 against the replicon variants that have shown reduced susceptibility to HCV-796 is evaluated. Briefly, the replicon-containing cells are seeded in 96-well plates at a subconfluent density (7000 cells/well) in a medium containing 2% FBS without G418. SCH 503034 solubilized with 100% dimethylsulfoxide (DMSO) is prepared in a […], 2-fold dilution series, with a final DMSO concentration of 0.5% and a final volume of […]. The final concentrations for SCH 503034 are […], 6.3, 12.5, 25, 50, 100, 200, 400, 800, 1600 and 3200 nM. The plate is incubated for 72 hours at 37° C. and 5% CO2 before quantification of HCV and GAPDH RNAs.

[2] = system: replicons containing HCV NS3 protease mutations T54A, A156S, A156T, V170A; assay: HCV-796 cross-resistance study, 3-day replicon assay on replicons with NS3 protease resistance mutations; format: cell-based; conditions: V170A vs wild type
Experimental: Replicon cells are seeded at ˜5000 cells/well in 96-well collagen I-coated Biocoat plates (Becton Dickinson). Twenty-four hrs post-seeding, inhibitors diluted in DMSO are added to replicon cells (Huh-7 cells). The final concentrations of DMSO and fetal bovine serum are 1% and 10%, respectively. SCH 503034 is serially diluted at 1:2 for a 10-point titration. To each concentration of the SCH 503034, the second inhibitor, HCV-796 or rhIFN-α2b control is titrated in. IFN-α is serially diluted at 1:3, whereas HCV RNA polymerase inhibitor, HCV-796, is serially diluted at 1:2. […] All samples are tested in triplicate. Media and inhibitors are refreshed daily for 3 days at which point the cells are washed with PBS and lysed in 1× cell lysis buffer (Ambion cat #8721). The replicon RNA level is measured using real time PCR (Taqman assay) The amplicon is located in 5B. The PCR primers are: 5B.2F, ATGGACAGGCGCCCTGA (SEQ ID NO:1) and 5B.2R, […] (SEQ ID NO:2). The probe sequence is FAM-labeled CACGCCATGCGCTGCGG (SEQ ID NO:3). GAPDH RNA is used as an endogenous control and is amplified in the same reaction as NS5B (multiplex PCR) using primers and VIC-labeled probe recommended by the manufacturer (PE Applied Biosystem). […]

| SMILES | Activity of SCH 503034 on HCV-796 resistant replicons [1] | Activity of SCH 503034 on HCV-796 resistant replicons ([1]; listed as SCH-503034) | Activity of HCV-796 on SCH 503034 resistant replicon cell lines [2] |
| --- | --- | --- | --- |
| CC(C)(C)NC(=O)N[C@H](C(=O)N1C[C@H]2[C@@H]([C@H]1C(=O)NC(CC1CCC1)C(=O)C(N)=O)C2(C)C)C(C)(C)C (stereo partly drawn) [SCH 503034, (1R,5S)—N-[3-amino-1-(cyclobutylmethyl)-2,3-dioxopropyl]-3-[2(S)-[[[(1,1-dimethylethyl)amino]carbonyl]amino]-3,3-dimethyl-1-oxobutyl]-6,6-dimethyl-3-azabicyclo[3.1.0]hexan-2(S)-carboxamide] | active | equivalent inhibitory activity | – |
| CNC(=O)c1c(-c2ccc(F)cc2)oc2cc(N(CCO)S(C)(=O)=O)c(C3CC3)cc12 [HCV-796, 5-cyclopropyl-2-(4-fluoro-phenyl)-6-[(2-hydroxy-ethyl)-methanesulfonyl-amino]-benzofuran-3-carboxylic acid methylamide] | – | – | identical to that observed against the wild-type replicon; also recorded: active |
